Source: US7163946B2 (Ligand Pharmaceuticals Incorporated, priority 2002, dated 2007)

Legend:
hPR = biological target: T1, hPR (Homo sapiens, UniProt P06401); test: T47D alkaline phosphatase assay, antagonist mode; format: cell-based; details: T47D human breast cancer cells; for Emax: read-out: hPR Antagonists T47D Cells Eff. (%); for IC50: read-out: hPR Antagonists T47D Cells IC50
T1 sequence (P06401 679-933 limits assumed): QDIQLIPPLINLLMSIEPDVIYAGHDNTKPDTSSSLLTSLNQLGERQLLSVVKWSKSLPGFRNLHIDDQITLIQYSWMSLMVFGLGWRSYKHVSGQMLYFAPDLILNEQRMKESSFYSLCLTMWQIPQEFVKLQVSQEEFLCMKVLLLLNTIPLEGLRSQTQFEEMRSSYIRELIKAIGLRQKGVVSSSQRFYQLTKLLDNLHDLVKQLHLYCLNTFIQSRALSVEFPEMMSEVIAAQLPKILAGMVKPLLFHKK
Text: The potential tissue-selectivities of the selected analogues were examined by using the T47D alkaline phosphatase assay that was developed from human breast cancer cells with endogenous PRs.

hPR-A = biological target: T2, hPR-A (Homo sapiens, UniProt P06401); test: Receptor competitive binding assay; details: read-out: PR binding Ki
T2 sequence (P06401 1-769 isoform P06401-2): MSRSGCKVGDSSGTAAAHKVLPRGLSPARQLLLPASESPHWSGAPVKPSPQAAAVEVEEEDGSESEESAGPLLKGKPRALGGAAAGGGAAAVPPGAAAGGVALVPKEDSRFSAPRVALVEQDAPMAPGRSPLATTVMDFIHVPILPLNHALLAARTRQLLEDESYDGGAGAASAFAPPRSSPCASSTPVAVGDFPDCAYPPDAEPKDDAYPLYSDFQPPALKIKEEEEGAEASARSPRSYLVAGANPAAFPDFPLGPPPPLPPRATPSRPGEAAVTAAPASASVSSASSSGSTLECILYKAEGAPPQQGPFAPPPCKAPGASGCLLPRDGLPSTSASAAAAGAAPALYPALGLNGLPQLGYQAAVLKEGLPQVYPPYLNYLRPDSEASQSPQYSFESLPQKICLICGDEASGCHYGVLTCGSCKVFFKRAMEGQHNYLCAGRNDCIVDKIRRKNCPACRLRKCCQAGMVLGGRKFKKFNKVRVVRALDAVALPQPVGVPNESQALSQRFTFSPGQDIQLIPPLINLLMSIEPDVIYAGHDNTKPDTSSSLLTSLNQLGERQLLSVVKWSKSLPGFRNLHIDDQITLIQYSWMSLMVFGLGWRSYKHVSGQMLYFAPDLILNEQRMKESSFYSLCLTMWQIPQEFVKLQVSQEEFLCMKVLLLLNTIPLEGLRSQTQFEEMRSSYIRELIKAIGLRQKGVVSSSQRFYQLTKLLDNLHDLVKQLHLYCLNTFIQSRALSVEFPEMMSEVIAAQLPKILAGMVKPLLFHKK

hGR = biological target: T3, hGR (Homo sapiens, UniProt P04150); test: hGR cotransfection assay (potency ratio to hPR); format: cell-based; details: receptor-selectivity potency ratio, cotransfection assays
T3 sequence (P04150 1-777): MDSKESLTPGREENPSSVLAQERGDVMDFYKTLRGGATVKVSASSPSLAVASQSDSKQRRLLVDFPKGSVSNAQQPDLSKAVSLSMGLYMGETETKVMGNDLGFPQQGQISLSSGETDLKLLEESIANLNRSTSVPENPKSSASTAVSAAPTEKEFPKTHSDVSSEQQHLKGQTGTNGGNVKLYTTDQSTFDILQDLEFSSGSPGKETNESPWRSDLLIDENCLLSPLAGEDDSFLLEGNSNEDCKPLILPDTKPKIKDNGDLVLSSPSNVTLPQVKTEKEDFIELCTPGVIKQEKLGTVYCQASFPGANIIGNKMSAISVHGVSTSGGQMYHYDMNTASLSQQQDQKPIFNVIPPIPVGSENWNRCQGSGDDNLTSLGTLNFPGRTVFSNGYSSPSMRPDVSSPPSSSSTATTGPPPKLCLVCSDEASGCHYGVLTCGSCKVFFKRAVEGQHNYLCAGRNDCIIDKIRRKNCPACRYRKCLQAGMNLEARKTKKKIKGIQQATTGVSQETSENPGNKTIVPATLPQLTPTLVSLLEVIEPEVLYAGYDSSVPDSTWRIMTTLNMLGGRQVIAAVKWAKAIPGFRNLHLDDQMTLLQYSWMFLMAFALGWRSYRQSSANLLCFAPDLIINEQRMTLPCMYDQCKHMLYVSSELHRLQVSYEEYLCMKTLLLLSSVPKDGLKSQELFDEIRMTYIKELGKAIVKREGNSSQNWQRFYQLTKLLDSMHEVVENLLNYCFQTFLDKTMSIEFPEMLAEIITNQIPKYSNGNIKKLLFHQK
Experimental: (§1) Antagonist efficacy was determined as a function (%) of maximal inhibition of a reference agonist at EC50 concentration. All the cotransfection experiments were carried out in 96-well plates by automation (Beckman Biomomek automated workstation).

[1] = biological target: T4, human estrogen receptor (hER) (Homo sapiens, UniProt P03372); test: hER cotransfection assay (potency ratio to hPR); format: cell-based; details: receptor-selectivity potency ratio, cotransfection assays
T4 sequence (P03372 1-595): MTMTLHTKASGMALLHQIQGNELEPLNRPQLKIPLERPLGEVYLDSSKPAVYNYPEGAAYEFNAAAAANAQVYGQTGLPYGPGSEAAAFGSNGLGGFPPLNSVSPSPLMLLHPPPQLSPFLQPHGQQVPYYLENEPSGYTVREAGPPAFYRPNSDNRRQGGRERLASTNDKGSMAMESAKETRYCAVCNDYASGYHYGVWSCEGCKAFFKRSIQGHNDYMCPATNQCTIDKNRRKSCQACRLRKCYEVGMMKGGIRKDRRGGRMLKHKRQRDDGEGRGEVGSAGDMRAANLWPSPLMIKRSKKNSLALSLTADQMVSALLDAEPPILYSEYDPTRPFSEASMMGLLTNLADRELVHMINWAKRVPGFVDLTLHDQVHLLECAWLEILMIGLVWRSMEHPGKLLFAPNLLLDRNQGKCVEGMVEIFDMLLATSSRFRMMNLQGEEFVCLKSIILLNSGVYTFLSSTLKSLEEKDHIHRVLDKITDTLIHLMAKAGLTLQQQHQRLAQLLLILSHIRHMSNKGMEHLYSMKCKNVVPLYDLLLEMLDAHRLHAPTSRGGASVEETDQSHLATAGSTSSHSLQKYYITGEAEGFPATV
Experimental: as §1

Compound | Emax (hPR) [%] | IC50 (hPR) [nM] | Ki (hPR-A) [nM] | hGR EC50 or IC50/hPR EC50 (hGR) | hER EC50 or IC50/hPR EC50 [1]
CC1=CC(C)(C)Nc2ccc3c(c21)C(c1ccccc1)Oc1c(F)cc(F)cc1-3 (racemic) [Compound 33, (±)-7,9-difluoro-5-phenyl-1,2-dihydro-2,2,4-trimethyl-5H-chromeno[3,4-f]quinoline] | < 20 | > 10000 | 2.7 | 10 | >1000
CC1=CC(C)(C)Nc2ccc3c(c21)C(c1cccc(C)c1)Oc1c(F)cc(F)cc1-3 (racemic) [Compound 34, (±)-7,9-difluoro-5-(3-methylphenyl)-1,2-dihydro-2,2,4-trimethyl-5H-chromeno[3,4-f]quinoline] | 47 | 565 | 2.5 | >1000 | >1000
CC1=CC(C)(C)Nc2ccc3c(c21)C(c1ccc(Cl)c(C)c1)Oc1c(F)cc(F)cc1-3 (racemic) [Compound 37, (±)-7,9-difluoro-5-(4-chloro-3-methylphenyl)-1,2-dihydro-2,2,4-trimethyl-5H-chromeno[3,4-f]quinoline] | 56 | 150 | 2.2 | 54 | >1000
CC1=CC(C)(C)Nc2ccc3c(c21)C(c1cccc(Cl)c1)Oc1c(F)cc(F)cc1-3 (racemic) [Compound 41, (±)-7,9-difluoro-5-(3-chlorophenyl)-1,2-dihydro-2,2,4-trimethyl-5H-chromeno[3,4-f]quinoline] | 50 | 135 | 2.8 | 105 | >1000
CC1=CC(C)(C)Nc2ccc3c(c21)C(c1cc2ccccc2s1)Oc1c(F)cc(F)cc1-3 (racemic) [Compound 63, (±)-7,9-difluoro-5-(benzo[b]thien-2-yl)-1,2-dihydro-2,2,4-trimethyl-5H-chromeno[3,4-f]quinoline] | 49 | 490 | 6.5 | 8.8 | 685
CC#CC1Oc2c(F)cc(F)cc2-c2ccc3c(c21)C(C)=CC(C)(C)N3 (racemic) [Compound 74, (±)-7,9-difluoro-5-(1-propynyl)-1,2-dihydro-2,2,4-trimethyl-5H-chromeno[3,4-f]quinoline] | 40 | 53 | 3.5 | >1000 | >1000
CC1=CC(C)(C)Nc2ccc3c(c21)/C(=C/c1ccccc1)Oc1c(F)cc(F)cc1-3 [Compound 10, 7,9-difluoro-5(Z)-benzylidene-1,2-dihydro-2,2,4-trimethyl-5H-chromeno[3,4-f]quinoline] | 49 | 97 | 6.8 | 290 | >1000
CC1=CC(C)(C)Nc2ccc3c(c21)/C(=C/c1ccncc1)Oc1c(F)cc(F)cc1-3 [Compound 14, 7,9-difluoro-5(Z)-(4-picolylidene)-1,2-dihydro-2,2,4-trimethyl-5H-chromeno[3,4-f]quinoline] | 44 | 116 | 6 | 365 | >1000
CC1=CC(C)(C)Nc2ccc3c(c21)/C(=C/c1cccc(F)c1)Oc1c(F)cc(F)cc1-3 [Compound 15, 7,9-difluoro-5(Z)-(3-fluorobenzylidene)-1,2-dihydro-2,2,4-trimethyl-5H-chromeno[3,4-f]quinoline] | 52 | 711 | 9.7 | 30 | >1000
CC1=CC(C)(C)Nc2ccc3c(c21)/C(=C/c1cc(F)ccc1F)Oc1c(F)cc(F)cc1-3 [Compound 17, 7,9-difluoro-5(Z)-(2,5-difluorobenzylidene)-1,2-dihydro-2,2,4-trimethyl-5H-chromeno[3,4-f]quinoline] | 42 | 389 | 9.5 | 66 | >1000
COc1ccccc1/C=C1\Oc2c(F)cc(F)cc2-c2ccc3c(c21)C(C)=CC(C)(C)N3 [Compound 18, 7,9-difluoro-5(Z)-(2-methoxybenzylidene)-1,2-dihydro-2,2,4-trimethyl-5H-chromeno[3,4-f]quinoline] | 58 | 55 | 3.9 | 77 | >1000
CC1=CC(C)(C)Nc2ccc3c(c21)/C(=C/c1cc(F)ccc1C)Oc1c(F)cc(F)cc1-3 [Compound 19, 7,9-difluoro-5(Z)-(2-methyl-5-fluorobenzylidene)-1,2-dihydro-2,2,4-trimethyl-5H-chromeno[3,4-f]quinoline] | 35 | 360 | 8.5 | 432 | >1000
CC1=CC(C)(C)Nc2ccc3c(c21)/C(=C/c1ccncc1C)Oc1c(F)cc(F)cc1-3 [Compound 20, 7,9-difluoro-5(Z)-(3-methyl-4-picolylidene)-1,2-dihydro-2,2,4-trimethyl-5H-chromeno[3,4-f]quinoline] | 59 | 170 | 2.9 | 27 | >1000
COc1ccc(F)cc1/C=C1\Oc2c(F)cc(F)cc2-c2ccc3c(c21)C(C)=CC(C)(C)N3 [Compound 26, 7,9-difluoro-5(Z)-(2-methoxy-5-fluorobenzylidene)-1,2-dihydro-2,2,4-trimethyl-5H-chromeno[3,4-f]quinoline] | 46 | 610 | 9 | 342 | >1000
CC1=CC(C)(C)Nc2ccc3c(c21)/C(=C/Br)Oc1c(F)cc(F)cc1-3 [Compound 29, 7,9-difluoro-5(Z)-bromomethylidene-1,2-dihydro-2,2,4-trimethyl-5H-chromeno[3,4-f]quinoline] | 40 | 170 | 7 | 83 | >1000
